In paper PMC11678491, “Bis-Iridoid Glycosides and Triterpenoids from Kolkwitzia amabilis and Their Potential as Inhibitors of ACC1 and ACL” (Molecules, 2024):
Where two headings read alike, the source gives them in different places.

Experiments:
ATP-citrate lyase (ACL) = target: T1, ATP-citrate lyase (ACL) (Homo sapiens, UniProt P53396); assay: ACL inhibitory assay (ADP-Glo luminescence); type: biochemical
T1 sequence (P53396 1-1101): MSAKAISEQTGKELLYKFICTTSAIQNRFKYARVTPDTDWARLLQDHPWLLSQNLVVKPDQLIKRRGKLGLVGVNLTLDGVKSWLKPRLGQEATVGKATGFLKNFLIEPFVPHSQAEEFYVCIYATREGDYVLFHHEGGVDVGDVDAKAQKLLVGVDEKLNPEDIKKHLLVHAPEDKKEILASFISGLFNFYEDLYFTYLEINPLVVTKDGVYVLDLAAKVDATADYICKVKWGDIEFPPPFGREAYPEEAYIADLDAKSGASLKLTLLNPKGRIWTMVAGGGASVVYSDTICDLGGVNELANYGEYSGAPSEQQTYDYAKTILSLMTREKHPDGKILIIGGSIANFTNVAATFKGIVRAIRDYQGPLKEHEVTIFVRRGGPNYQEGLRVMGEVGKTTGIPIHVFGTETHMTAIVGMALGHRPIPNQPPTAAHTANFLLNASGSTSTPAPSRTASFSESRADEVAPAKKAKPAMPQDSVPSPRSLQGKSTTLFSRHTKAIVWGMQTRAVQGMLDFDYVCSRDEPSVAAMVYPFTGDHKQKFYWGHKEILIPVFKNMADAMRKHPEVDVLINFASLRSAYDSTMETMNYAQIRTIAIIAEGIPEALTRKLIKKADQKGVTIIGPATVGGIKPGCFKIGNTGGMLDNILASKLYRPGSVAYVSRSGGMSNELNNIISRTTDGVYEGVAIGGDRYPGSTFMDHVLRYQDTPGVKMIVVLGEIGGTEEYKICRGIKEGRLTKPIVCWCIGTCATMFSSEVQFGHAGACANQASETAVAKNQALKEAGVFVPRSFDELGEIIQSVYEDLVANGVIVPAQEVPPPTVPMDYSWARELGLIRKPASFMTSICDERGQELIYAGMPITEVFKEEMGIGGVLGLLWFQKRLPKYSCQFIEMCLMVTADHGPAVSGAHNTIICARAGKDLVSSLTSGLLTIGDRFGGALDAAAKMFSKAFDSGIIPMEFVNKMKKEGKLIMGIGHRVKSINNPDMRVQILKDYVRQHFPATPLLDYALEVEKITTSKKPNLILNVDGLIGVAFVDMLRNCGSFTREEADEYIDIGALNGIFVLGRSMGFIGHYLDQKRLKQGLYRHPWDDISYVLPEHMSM
Procedure: (§1) The ACC1 and ACL inhibitory activity assay were conducted using ADP-Glo^TM luminescence assay reagents (Promega Biotech Co., Ltd, Beijing, China), which measure ACC1 or ACL activity by quantifying the amount of ADP generated in the enzymatic reaction. […] Reactions were conducted in each well for 30 min at room temperature. Following this, 2.0 μL of ATP was added to each well, and the mixture was incubated for 1 h at room temperature. Negative control wells, which lacked the protein kinase, substrate, and ATP, were also included in the kinase assay. After the enzymatic reaction, 2.5 μL of ADP-Glo reagent was added to each well to terminate the kinase reaction and deplete any unconsumed ATP within 1 h at room temperature. Finally, 5.0 μL of kinase detection reagent was added to each well and incubated for 1 h to convert ADP to ATP. The luminescence signal was measured using a PerkinElmer EnVision reader.

[1] = target: acetyl CoA carboxylase 1 (ACC1) (Homo sapiens, UniProt Q13085); assay: ACC1 inhibitory assay (ADP-Glo luminescence); type: biochemical
Procedure: as §1

[2] = mean ± SEM of triplicated experiments
[3] = Figure 5, mean ± standard deviation (SD) (n = 3), read-out: IC50 (ACC1)
[4] = mean ± SEM of triplicated experiments, read-out: IC50 ACC1
[5] = Figure 5, mean ± standard deviation (SD) (n = 3)

| IC50 (ATP-citrate lyase (ACL); [2]) | IC50 [1, 3] | IC50 [1, 4] | IC50 (ATP-citrate lyase (ACL); [5]) | IC50 [1] | SMILES |
| --- | --- | --- | --- | --- | --- |
| 3.6 ± 0.9 µM | – | > 20 µM | 3.63 ± 0.91 µM | – | C=C[C@H]1[C@H](O[C@@H]2O[C@H](CO)[C@@H](O)[C@H](O)[C@H]2O)OC=C(C(=O)O[C@H]2C[C@@H]3C(C(=O)OC)=CO[C@@H](O)[C@@H]3[C@@H]2C)[C@H]1CC(OC)OC [Compound 8, lonicejaposide C] |
| 2 ± 0.5 µM | 10.3 ± 0.78 µM | 10.3 ± 0.8 µM | – | – | CC(=O)O[C@H]1CC[C@]2(C)[C@H]3CC=C4[C@@H]5[C@@H](C)[C@H](C)CC[C@]5(C(=O)O)CC[C@@]4(C)[C@]3(C)CC[C@H]2C1(C)C [Compound 17, 3β-acetyl-ursolic acid] |

Further lines, the compound ahead of its results:

| SMILES | IC50 (ATP-citrate lyase (ACL); [2]) | IC50 [1, 3] | IC50 [1, 4] | IC50 (ATP-citrate lyase (ACL); [5]) | IC50 [1] |
| --- | --- | --- | --- | --- | --- |
| COc1ccc(-c2ccccc2)cc1NS(=O)(=O)c1cc(Cl)cc(Cl)c1O [BMS 303141, reference compound] | 0.3 ± 0.1 µM | – | – | – | – |
| C=C[C@H]1[C@H](O[C@@H]2O[C@H](CO)[C@@H](O)[C@H](O)[C@H]2O)OC=C(C(=O)O[C@H]2C[C@@H]3C(C(=O)OC)=CO[C@@H](O[C@@H]4O[C@H](CO)[C@@H](O)[C@H](OC(=O)/C=C/c5ccc(O)c(O)c5)[C@H]4O)[C@@H]3[C@@H]2C)[C@H]1CC(OC)OC [Compound 2, Amabilioside B] | – | 9.64 ± 0.99 µM | 9.6 ± 1 µM | – | – |
| CC1(C)CC[C@]2(C(=O)O)CC[C@]3(C)C(=CC[C@@H]4[C@@]5(C)CC[C@H](O)[C@@](C)(COC(=O)/C=C/c6ccc(O)cc6)[C@@H]5CC[C@]43C)[C@@H]2C1 [Compound 31, (23E)-coumaroylhederagenin] | 4.7 ± 1.3 µM | – | > 20 µM | 4.69 ± 1.3 µM | – |
| COc1ccccc1[C@H](Cn1c(=O)n(C(C)(C)C(=O)O)c(=O)c2c(C)c(-c3ncco3)sc21)OC1CCOCC1 [ND 630, Firsocostat, reference compound] | – | – | – | – | 0.002 ± 0.0001 µM |
